Reference: US8884032B2, “Trioxane monomers and dimers” (The Johns Hopkins University, priority 2009, dated 2014)
Values joined by “and” are separate entries in the source; they are usually repeats but may differ in a detail not shown here. Equal entries are not always repeated. Marks after values point to notes of the source that are not given here.

How the values were obtained:
[1] = system: Plasmodium berghei, ANKA strain; test: Antimalarial efficacy of a single oral dose of trioxane (8 mg/kg) combined with mefloquine hydrochloride (24 mg/kg) in Plasmodium berghei-infected mice (Table 3); assay type: in vivo; details: single oral dose 8 mg/kg trioxane + 24 mg/kg mefloquine hydrochloride; for Average Survival (days) After Infection: 3 mice, experiment stopped on day 57
Protocol: (§1) Each trioxane silylamide 14a, 14b, and 16 (0.90 mg) was dissolved in 0.11 mL of 7:3 Tween 80:ethanol and then diluted with 1.10 mL of water for oral administration to 5-week old C57BU6J male mice (from the Jackson Laboratory) weighing 18-19 grams that were infected intraperitoneally on day 0 with the Plasmodium berghei, ANKA strain (2×10^7 parasitized erythrocytes). Woodard et al., 2009. Each of 3 mice in a group was treated orally 24 hours post-infection with a single dose of 0.20 mL (0.20 mL/1.21 mL×0.9 mg=0.15 mg) of diluted compound solution, corresponding to a dose of 8 mg/kg, combined with 24 mg/kg of mefloquine hydrochloride. Determining blood parasitemia levels, as well as monitoring the duration of animal survival compared to survival time of animals receiving no drug, are both widely accepted as measures of a drug's efficacy in antimalarial drug development. […] Animals infected but receiving no drug died on an average of 15 days post-infection. A widely accepted yardstick of cure (i.e., 100% efficacy) is survival of animals to at least day 30 post-infection, with no detectable malaria parasites in the animal's blood at that time.

P388 leukemia = details: NCI Report on NSC 369397, 25 Oct. 1983; cited from earlier work
[2] = system: 60 cancer cell lines (leukemia, non-small-cell lung, colon, CNS, melanoma, ovarian, renal, prostate, breast); details: cited from earlier work
[3] = system: Plasmodium berghei, ANKA strain; test: Antimalarial efficacy of a single oral dose of trioxane combined with mefloquine hydrochloride in Plasmodium berghei-infected mice (Table 1); assay type: in vivo
Protocol: (§2) Each trioxane 2b, 3, 4a, and 4b (0.90 mg) was dissolved in 0.11 mL of 7:3 Tween 80:ethanol and then diluted with 1.10 mL of water for oral administration to 5-week old C57BL/6J male mice (from the Jackson Laboratory) weighing about 22 g that were infected intraperitoneally on day 0 with the Plasmodium berghei, ANKA strain (2×10^7 parasitized erythrocytes). Chen et al., 2006.
(§3) Each of five mice in a group was treated orally 24 h post-infection with a single dose of 0.20 mL (0.20 mL/1.21 mL×0.9 mg=0.15 mg) of diluted compound solution, corresponding to a dose of 6.8 mg/kg, combined with 20 mg/kg of mefloquine hydrochloride. Determining blood parasitemia levels, as well as monitoring the duration of animal survival compared to survival time of animals receiving no drug, are both widely accepted as measures of a drug's efficacy in antimalarial drug development. […] Animals receiving no drug died on days 6-7 post-infection. A widely accepted yardstick of cure (i.e., 100% efficacy) is survival of animals to day 30 post-infection, with no detectable malaria parasites in the animal's blood at that time.
Average survival results are summarized in Table 1, including single oral doses of 13 mg/kg of trioxane combined with 13 mg/kg of mefloquine hydrochloride. The clinically used monomeric water-soluble trioxane drug 2c and the synthetic trioxolane peroxide drug development candidate OZ277 (9) maleate are included as monotherapy reference compounds.

[4] = system: Plasmodium berghei, ANKA malaria strain; test: Antimalarial efficacy of a single oral dose (7.1 mg/kg) of trioxane combined with mefloquine hydrochloride (21 mg/kg) in Plasmodium berghei-infected mice (Table 2); assay type: in vivo
Protocol: (§4) Each trioxane dimer 12a-12c (0.90 mg) was dissolved in 0.11 mL of 7:3 Tween 80:ethanol and then diluted with 1.10 mL of distilled water for oral administration to 5-week-old C57BL/6J male mice (Jackson Laboratory) weighing about 21 g that were infected ip on day 0 with the Plasmodium berghei, ANKA malaria strain (2×10^7 parasitized erythrocytes) [Chen et al., 2006]. Each of five mice in a group was treated orally 24 h post-infection with a single dose of 0.20 mL (0.20 mL/1.21 mL×0.9 mg=0.15 mg) of diluted compound solution, corresponding to a dose of 7.1 mg/kg, combined with 21 mg/kg of mefloquine hydrochloride. Both determining blood parasitemia levels, as well as monitoring the duration of animal survival compared with survival time of infected animals receiving no drug, are widely accepted measures of drug efficacy in antimalarial drug development. […] The average survival time of the animals receiving no drug was 15.8 days post-infection. […] Widely accepted indications of complete cure (i.e. 100% efficacy) are survival of animals to day 30 post-infection with no detectable malaria parasites in the animal's blood at that time.

[5] = system: Plasmodium berghei, ANKA strain; test: Antimalarial efficacy of a single oral dose of trioxane (8 mg/kg) combined with mefloquine hydrochloride (24 mg/kg) in Plasmodium berghei-infected mice (Table 3); assay type: in vivo; details: mefloquine hydrochloride alone, single oral dose 22 mg/kg
Plasmodium berghei = details: monotherapy, single oral dose 30 mg/kg; data from Vennerstrom et al.; cited from earlier work
[6] = Overt toxicity, behavioral change and body weight in treated malaria-infected mice (silylamide study); assay type: in vivo; details: malaria-infected animals cured by trioxane plus mefloquine hydrochloride
Protocol: as §1

[7] = Thermal stability in the absence of solvent (1H NMR); assay type: physicochemical; details: neat solid
From the text: Referring now to Scheme 3, C-10 acetate 2d was converted into C-10-allyl derivative 7 and then, via hydroboration followed by oxidation, into monomeric trioxane carboxylic acid 8. Jung et al, 2003. Monomeric trioxane carboxylic acid 8 can be transformed in one step directly into a diverse library of monomeric trioxane amides. Jung et al, 2003. For example, one-step amidation of carboxylic acid 8 produced trioxane fluoroaryl amide 4a, a monomeric version of dimer fluoroaryl amide 3 (Scheme 3). In the same way, monomer trioxane fluoroanilide 4b was prepared directly and in good yield from carboxylic acid 8 (Scheme 3). The overall yield of 4b is approximately 48% from natural trioxane 1, and scale up to multigram or even kilogram amounts is expected to be straightforward. […]
Referring once again to Scheme 4, dihydroartemisinin acetate 2d, prepared from natural trioxane 1 in near quantitative yield, Posner et al., 2003, underwent tin-promoted dimerization, Posner et al., 2003, with bis-allylic silane 10, Bigot and Breit, 2008, to form pure C-10b, C10b-trioxane dimer alcohol 11 in 59% yield. […] Each of benzoate esters 12a-12c in the absence of solvent is thermally stable at the elevated temperature of 60° C. for at least 1 week and at 70° C. for at least 24 h, with less than 5% decomposition detected by ^1H NMR spectroscopy. […]

[8] = Overt toxicity and behavioral change in treated malaria-infected mice (fluoroaryl amide study); assay type: in vivo; details: malaria-infected animals cured by trioxane plus mefloquine hydrochloride
Protocol: as §2, §3

[9] = Overt toxicity, behavioral change and body weight in treated malaria-infected mice (dimer ester study); assay type: in vivo; details: 7.1 mg/kg trioxane + 21 mg/kg mefloquine hydrochloride, mice surviving 30 days
Protocol: as §4

[10] = mefloquine hydrochloride alone, single oral dose 20 mg/kg
[11] = mefloquine hydrochloride alone, single oral dose 21 mg/kg
[12] = single oral dose 6.8 mg/kg trioxane + 20 mg/kg mefloquine hydrochloride
[13] = single oral dose 6.8 mg/kg trioxane + 20 mg/kg mefloquine hydrochloride, 24 h post-infection, C57BL/6J mice
[14] = single oral dose 13 mg/kg trioxane + 13 mg/kg mefloquine hydrochloride

C[C@H]1[C@@H](CCC(=O)NCCC[Si](C)(C)C)O[C@@H]2O[C@]3(C)CC[C@H]4[C@H](C)CC[C@@H]1[C@@]24OO3 [14b]
% Suppression of Parasitemia (on day 3 post-infection) [1]: >99.5%
parasites in the blood of the surviving mice on day 57 [1]: ^aOne mouse died on day 17; the other two mice in this group showed no parasitemia on day 57.
Average Survival (days) After Infection [1]: 44^a days

C[C@@H]1CC[C@H]2[C@@H](C)C(=O)O[C@@H]3O[C@@]4(C)CC[C@@H]1[C@]32OO4 [artemisinin]
activity against P388 leukemia (P388 leukemia): inactive
anticancer activity in 60 cell line panel [2]: modest anticancer activity

Cl.OC(c1cc(C(F)(F)F)nc2c(C(F)(F)F)cccc12)C1CCCCN1 (stereo not shown) [Mefloquine, mefloquine hydrochloride, reference compound]
% Suppression of Parasitemia (on day 3 post-infection) [3, 10]: 99.6%
Average Survival (days) After Infection [3, 10]: 17.6 days
No. of mice parasite free (day 30) [4, 11]: 1
suppression of parasitemia (day 3) [4, 11]: 91.5%
% parasitemia on day 30% ([4]; mefloquine hydrochloride alone, single oral dose 21 mg/kg, average of 4 mice, hydrochloride, 21 mg/kg): 25 (4 mice) %
% parasitemia on day 30% ([4]; mefloquine hydrochloride alone, single oral dose 21 mg/kg, average of 4 mice, listed as mefloquine hydrochloride, hydrochloride, 21 mg/kg): 25%
cure of malaria-infected mice [5]: not curative

CC(C)(N)CNC(=O)C[C@H]1CC[C@]2(CC1)OO[C@]1(O2)C2CC3CC(C2)CC1C3 [compound 9]
% Suppression of Parasitemia (on day 3 post-infection) (Plasmodium berghei): 99.95^b %

C[C@H]1[C@@H](CC(C[C@H]2O[C@@H]3O[C@]4(C)CC[C@H]5[C@H](C)CC[C@@H]([C@H]2C)[C@@]35OO4)C(=O)NCc2ccc(F)cc2)O[C@@H]2O[C@]3(C)CC[C@H]4[C@H](C)CC[C@@H]1[C@@]24OO3 (stereo partly shown) [compound 3, Trioxane Dimer Fluoroaryl Amide]
% Suppression of Parasitemia (on day 3 post-infection) [3, 12]: 99.5%
Average Survival (days) After Infection [3, 13]: 27.4 (22, 25, days
% Suppression of Parasitemia (on day 3 post-infection) [3, 14]: 99.9%
Average Survival (days) After Infection [3, 14]: 24.6 (17, 21, days

C[C@H]1[C@@H](CCC(=O)NC[Si](C)(C)C)O[C@@H]2O[C@]3(C)CC[C@H]4[C@H](C)CC[C@@H]1[C@@]24OO3 [14a]
% Suppression of Parasitemia (on day 3 post-infection) [1]: >99.5%
parasites in the blood of the surviving mice on day 57 [1]: no parasites were detected
Average Survival (days) After Infection [1]: >57 days
overt toxicity or behavioral change attributable to trioxane drug administration [6]: Neither overt toxicity nor behavioral change

C[C@H]1[C@@H](CC(C[C@H]2O[C@@H]3O[C@]4(C)CC[C@H]5[C@H](C)CC[C@@H]([C@H]2C)[C@@]35OO4)C(=O)NC[Si](C)(C)C)O[C@@H]2O[C@]3(C)CC[C@H]4[C@H](C)CC[C@@H]1[C@@]24OO3 (stereo partly shown) [compound 16]
% Suppression of Parasitemia (on day 3 post-infection) [1]: >99.5%
parasites in the blood of the surviving mice on day 57 [1]: no parasites were detected
Average Survival (days) After Infection [1]: >57 days
overt toxicity or behavioral change attributable to trioxane drug administration [6]: Neither overt toxicity nor behavioral change

C[C@H]1[C@@H](CCC(=O)Nc2ccc(F)cc2)O[C@@H]2O[C@]3(C)CC[C@H]4[C@H](C)CC[C@@H]1[C@@]24OO3 [4b, Trioxane Monomer Fluoroanilide]
blood parasitemia of the one mouse not cured, day 30 ([3]; 6.8 mg/kg trioxane + 20 mg/kg mefloquine hydrochloride): 4%
mice completely cured (no parasites in their blood) on day 30 post-infection ([3]; 6.8 mg/kg trioxane + 20 mg/kg mefloquine hydrochloride, five mice): 80%
blood parasitemia of the one mouse not cured, day 30 ([3]; 13 mg/kg trioxane + 13 mg/kg mefloquine hydrochloride): 2%
mice cured (day 30) ([3]; 13 mg/kg trioxane + 13 mg/kg mefloquine hydrochloride, five mice): four
% Suppression of Parasitemia (on day 3 post-infection) ([3]; monotherapy, single oral dose 72 mg/kg trioxane, no mefloquine): 99.0%
Average Survival (days) After Infection ([3]; monotherapy, single oral dose 72 mg/kg trioxane, no mefloquine, 72 mg/kg): 24.4 days and 24.4 (21, 23, days
extended survival time after reinfection, longer than average survival of a newly infected control group ([3]; reinfection of the four cured mice on day 32 after the original infection): approximately four
% Suppression of Parasitemia (on day 3 post-infection) [3, 12]: 99.0%
% Suppression of Parasitemia (on day 3 post-infection) [3, 14]: 99.6%
Average Survival (days) After Infection [3, 14]: 30 days
stable in the absence of solvent at 60° C. ([7]; 60° C.): at least 7 days
stable in the absence of solvent at 70° C. ([7]; 70° C.): at least 1 day
overt toxicity or behavioral change attributable to trioxane drug administration [8]: Neither overt toxicity nor behavioral change

CO[C@H]1O[C@@H]2O[C@@]3(C)CC[C@H]4[C@H](C)CC[C@@H]([C@H]1C)[C@@]24OO3 [2b, artemether, reference compound]
% Suppression of Parasitemia (on day 3 post-infection) [3, 12]: 99.8%
Average Survival (days) After Infection [3, 13]: 19.8 days and 19.8 (16, 17, days
% Suppression of Parasitemia (on day 3 post-infection) [3, 14]: 99.7%
Average Survival (days) After Infection [3, 14]: 19.6 (16, 17, days
survival after infection (all mice) ([4]; 7.1 mg/kg trioxane + 21 mg/kg mefloquine hydrochloride): 30 days
No. of mice parasite free (day 30) ([4]; single oral dose 7.1 mg/kg trioxane + 21 mg/kg mefloquine hydrochloride, five mice): 4
% parasitemia on day 30% ([4]; single oral dose 7.1 mg/kg trioxane + 21 mg/kg mefloquine hydrochloride, number of parasitemic mice in brackets): 1.6 (1 mouse) %
weight gain [9]: 10-20%
